Molecular target: T1, p300 (Homo sapiens, UniProt Q09472)
T1 construct: host or cells: A549 P300 HiBit cells
Assay: P300 degradation, HiBit technology in A549 P300 HiBit cells (2 h)
Assay type: cell-based
Settings: 2 hrs post treatment; for Dmax: A549, A549 P300 HiBit cells; for DC50: A549 P300 HiBit cells
How it was run: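 Endogenously HiBiT-tagged A549 cells are plated, left overnight, then treated with a compound dilution series at 37 °C and 5% CO2. At the set time, lytic detection buffer is added and plates are shaken 10 min at room temperature before luminescence is measured to derive potency and Dmax.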

T1 sequence (Q09472 whole entry): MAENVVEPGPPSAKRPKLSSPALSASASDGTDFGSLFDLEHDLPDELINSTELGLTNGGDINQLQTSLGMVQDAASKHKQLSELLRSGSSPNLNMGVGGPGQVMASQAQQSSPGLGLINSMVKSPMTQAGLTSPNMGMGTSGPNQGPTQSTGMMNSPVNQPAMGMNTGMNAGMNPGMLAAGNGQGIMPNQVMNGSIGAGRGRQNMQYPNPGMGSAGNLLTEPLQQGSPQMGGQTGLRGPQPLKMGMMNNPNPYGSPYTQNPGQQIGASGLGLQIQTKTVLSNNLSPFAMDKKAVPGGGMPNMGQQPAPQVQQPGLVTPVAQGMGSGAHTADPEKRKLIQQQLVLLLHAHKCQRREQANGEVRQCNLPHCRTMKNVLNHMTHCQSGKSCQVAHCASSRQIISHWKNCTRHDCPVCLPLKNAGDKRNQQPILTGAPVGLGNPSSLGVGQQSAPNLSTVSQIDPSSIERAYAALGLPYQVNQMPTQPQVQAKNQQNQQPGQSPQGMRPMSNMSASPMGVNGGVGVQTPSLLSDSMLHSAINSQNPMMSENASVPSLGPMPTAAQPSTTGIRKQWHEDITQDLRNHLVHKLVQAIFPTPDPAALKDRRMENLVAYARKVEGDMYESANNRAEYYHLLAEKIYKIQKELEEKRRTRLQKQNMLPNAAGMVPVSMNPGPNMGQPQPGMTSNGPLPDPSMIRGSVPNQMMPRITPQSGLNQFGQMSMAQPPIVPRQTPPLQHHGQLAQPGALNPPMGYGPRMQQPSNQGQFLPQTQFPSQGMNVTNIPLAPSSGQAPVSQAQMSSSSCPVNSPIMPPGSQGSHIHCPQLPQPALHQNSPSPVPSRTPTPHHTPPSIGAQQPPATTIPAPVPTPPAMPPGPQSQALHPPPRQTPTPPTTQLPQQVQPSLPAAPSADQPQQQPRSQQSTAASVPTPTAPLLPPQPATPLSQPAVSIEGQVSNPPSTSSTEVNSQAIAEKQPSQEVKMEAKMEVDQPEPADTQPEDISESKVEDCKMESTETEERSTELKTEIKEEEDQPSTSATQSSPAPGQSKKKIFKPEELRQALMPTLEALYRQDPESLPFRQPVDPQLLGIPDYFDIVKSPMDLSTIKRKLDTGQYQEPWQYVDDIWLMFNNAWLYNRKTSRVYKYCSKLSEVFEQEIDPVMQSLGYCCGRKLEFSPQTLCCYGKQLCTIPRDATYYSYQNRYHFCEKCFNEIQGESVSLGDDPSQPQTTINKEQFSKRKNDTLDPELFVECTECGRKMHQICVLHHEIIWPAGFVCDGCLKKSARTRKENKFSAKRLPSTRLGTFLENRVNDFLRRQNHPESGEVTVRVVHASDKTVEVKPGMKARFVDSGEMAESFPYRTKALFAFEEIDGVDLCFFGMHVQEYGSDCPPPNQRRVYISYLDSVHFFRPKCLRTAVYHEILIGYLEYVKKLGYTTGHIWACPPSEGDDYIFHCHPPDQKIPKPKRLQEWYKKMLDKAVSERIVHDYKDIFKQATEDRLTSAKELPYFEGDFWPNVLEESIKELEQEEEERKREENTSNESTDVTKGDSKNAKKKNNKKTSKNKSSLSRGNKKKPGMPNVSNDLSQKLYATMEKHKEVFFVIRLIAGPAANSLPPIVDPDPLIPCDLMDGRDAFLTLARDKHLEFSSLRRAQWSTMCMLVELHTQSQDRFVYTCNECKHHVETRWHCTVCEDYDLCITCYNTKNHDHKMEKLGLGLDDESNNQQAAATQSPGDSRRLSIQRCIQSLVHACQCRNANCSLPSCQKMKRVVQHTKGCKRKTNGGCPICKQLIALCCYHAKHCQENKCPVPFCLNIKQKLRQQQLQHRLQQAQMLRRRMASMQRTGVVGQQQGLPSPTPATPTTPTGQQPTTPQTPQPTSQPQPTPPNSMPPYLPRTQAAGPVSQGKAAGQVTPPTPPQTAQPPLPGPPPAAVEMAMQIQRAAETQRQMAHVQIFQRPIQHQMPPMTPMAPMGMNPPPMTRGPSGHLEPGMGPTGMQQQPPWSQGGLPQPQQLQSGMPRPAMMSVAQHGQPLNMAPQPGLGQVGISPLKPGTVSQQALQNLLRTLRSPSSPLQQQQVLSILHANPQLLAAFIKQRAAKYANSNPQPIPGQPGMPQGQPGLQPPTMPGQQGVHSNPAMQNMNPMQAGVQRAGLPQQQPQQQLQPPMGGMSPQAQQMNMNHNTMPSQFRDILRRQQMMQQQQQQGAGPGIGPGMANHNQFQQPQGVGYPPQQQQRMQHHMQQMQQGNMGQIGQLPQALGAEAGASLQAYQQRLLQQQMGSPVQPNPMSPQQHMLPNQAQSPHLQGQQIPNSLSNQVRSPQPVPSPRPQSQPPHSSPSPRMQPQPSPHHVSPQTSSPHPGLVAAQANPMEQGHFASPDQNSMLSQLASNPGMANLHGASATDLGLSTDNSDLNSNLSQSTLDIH

Row | SMILES | Dmax [%] | DC50 [nM]
1 | CC(C)c1cc(-c2cccc3cc(-c4ccc(C(=O)NCC#Cc5cc(N(C)C)c6cnn(C7CCC(=O)NC7=O)c6c5)nc4)ncc23)cc2c1n(C)c(=O)n2C (centres unmarked) [Example A9, N-(3-(4-(Dimethylamino)-1-(2,6-dioxopiperidin-3-yl)-1H-indazol-6-yl)prop-2-yn-1-yl)-5-(8-(7-isopropyl-1,3-dimethyl-2-oxo-2,3-dihydro-1H-benzo[d]imidazol-5-yl)isoquinolin-3-yl)picolinamide] | 60 to 79 | 10 to 99
2 | Cc1cc(-c2ncc(N(C)c3cc(N4CCOCC4)c4oc(=O)n(C)c4c3)cn2)cnc1C(=O)NCC#Cc1ccc2occ(C3CCC(=O)NC3=O)c2c1 (centres unmarked) [Example A80, N-(3-(3-(2,6-dioxo-piperidin-3-yl)benzofuran-5-yl)prop-2-yn-1-yl)-3-methyl-5-(5-(methyl (3-methyl-7-morpholino-2-oxo-2,3-dihydrobenzo [d]oxazol-5-yl)amino)pyrimidin-2-yl)picolinamide] | < 20 | > 1000
3 | Cc1cc(-c2ncc(N(C)c3cc(C(C)C)c4c(c3)n(C)c(=O)n4C)cc2F)cnc1C(=O)NCC#Cc1ccc2occ(C3CCC(=O)NC3=O)c2c1 (centres unmarked) [Example A153, N-(3-(3-(2,6-dioxo-piperidin-3-yl)benzofuran-5-yl)prop-2-yn-1-yl)-3-fluoro-5-((7-iso-propyl-1,3-dimethyl-2-oxo-2,3-dihydro-1H-benzo[d]imidazol-5-yl)(methyl)amino)-5′-methyl-[2,3′-bipyridine]-6′-carboxamide] | > 80 | 1 to 9.9
4 | Cc1cc(-c2ncc(N(C)c3cc(C(C)C)c4c(c3)n(C)c(=O)n4C)cc2F)cnc1C(=O)NCC#Cc1cccc(NC2CCC(=O)NC2=O)c1 (centres unmarked) [Example A47, N-(3-(3-((2,6-dioxopiperidin-3-yl)amino)phenyl)prop-2-yn-1-yl)-3-fluoro-5-((7-isopropyl-1,3-dimethyl-2-oxo-2,3-dihydro-1H-benzo [d]imidazol-5-yl)(methyl)amino)-5′-methyl-[2,3′-bipyridine]-6′-carboxamide] | > 80 | 10 to 99
5 | Cc1cc(-c2ncc(Nc3cc(C4CCOCC4)c4c(c3)n(C)c(=O)n4C)cn2)cnc1C(=O)NCC#Cc1cc2c(C3CCC(=O)NC3=O)cccc2o1 (centres unmarked) [Example A236, 5-(5-((1,3-dimethyl-2-oxo-7-(tetrahydro-2H-pyran-4-yl)-2,3-dihydro-1H-benzo[d]imidazol-5-yl)amino)pyrimidin-2-yl)-N-(3-(4-(2,6-dioxopiperidin-3-yl)benzofuran-2-yl)prop-2-yn-1-yl)-3-methylpicolinamide] | 40 to 59 | 10 to 99
6 | Cc1cc(-c2cnc(N(C)c3cc(C4CCOCC4)c4c(c3)n(C)c(=O)n4C)cn2)cnc1C(=O)NCC#Cc1ccc2occ(C3CCC(=O)NC3=O)c2c1 (centres unmarked) [Example A128, 5-(5-((1,3-dimethyl-2-oxo-7-(tetrahydro-2H-pyran-4-yl)-2,3-dihydro-1H-benzo[d]imidazol-5-yl)(methyl)amino)pyrazin-2-yl)-N-(3-(3-(2,6-dioxopiperidin-3-yl)benzofuran-5-yl)prop-2-yn-1-yl)-3-methylpicolinamide] | > 80 | 1 to 9.9
7 | Cc1cc(-c2ncc(N(C)c3cc(C4CCOCC4)c4c(c3)n(C)c(=O)n4C)c(N(C)C)n2)cnc1C(=O)NCC#Cc1cc2c(C3CCC(=O)NC3=O)cccc2o1 (centres unmarked) [Example A225, 5-(5-((1,3-dimethyl-2-oxo-7-(tetrahydro-2H-pyran-4-yl)-2,3-dihydro-1H-benzo[d]imidazol-5-yl)(methyl)amino)-4-(dimethylamino)pyrimidin-2-yl)-N-(3-(4-(2,6-dioxopiperidin-3-yl)benzofuran-2-yl)prop-2-yn-1-yl)-3-methylpicolinamide] | < 20 | > 1000
8 | CC(C)c1cc(N2CCCc3cc(-c4ccc(C(=O)NCC#Cc5ccc6occ(C7CCC(=O)NC7=O)c6c5)nc4)c(F)cc32)cc2c1n(C)c(=O)n2C (centres unmarked) [Example A117, N-(3-(3-(2,6-dioxo-piperidin-3-yl)benzofuran-5-yl)prop-2-yn-1-yl)-5-(7-fluoro-1-(7-isopropyl-1,3-dimethyl-2-oxo-2,3-dihydro-1H-benzo [d]imidazol-5-yl)-1,2,3,4-tetrahydro-quinolin-6-yl)picolinamide] | > 80 | 1 to 9.9
9 | Cn1c(=O)n(C)c2ncc(-c3cccc4cc(-c5ccc(C(=O)NCC#Cc6ccc7occ(C8CCC(=O)NC8=O)c7c6)nc5)ncc34)cc21 (centres unmarked) [Example A157, 5-(8-(1,3-dimethyl-2-oxo-2,3-dihydro-1H-imidazo[4,5-b]pyridin-6-yl)isoquinolin-3-yl)-N-(3-(3-(2,6-dioxopiperidin-3-yl)benzofuran-5-yl)prop-2-yn-1-yl)picolinamide] | > 80 | 1 to 9.9
10 | Cn1c(=O)oc2ccc(-c3cccc4cc(-c5ccc(C(=O)NCC#Cc6ccc7occ(C8CCC(=O)NC8=O)c7c6)nc5)ncc34)cc21 (centres unmarked) [Example A101, N-(3-(3-(2,6-dioxo-piperidin-3-yl)benzofuran-5-yl)prop-2-yn-1-yl)-5-(8-(3-methyl-2-oxo-2,3-dihydrobenzo[d]oxazol-5-yl)isoquinolin-3-yl)picolinamide] | < 20 | > 1000
11 | CC(C)c1cc(-c2cccc3cc(-c4ccc(C(=O)NCC#Cc5ccc6c(c5)N(C5CCC(=O)NC5=O)CC6)nc4)ncc23)cc2c1n(C)c(=O)n2C (centres unmarked) [Example A184, N-(3-(1-(2,6-dioxo-piperidin-3-yl)indolin-6-yl)prop-2-yn-1-yl)-5-(8-(7-isopropyl-1,3-dimethyl-2-oxo-2,3-dihydro-1H-benzo[d]imidazol-5-yl)isoquinolin-3-yl)picolinamide] | > 80 | 10 to 99

The next lines start with the values.

Row | Dmax [%] | DC50 [nM] | SMILES
12 | > 80 | 1 to 9.9 | Cc1cc2c(N3CCCc4cc(-c5ccc(C(=O)NCC#Cc6ccc7occ(C8CCC(=O)NC8=O)c7c6)nc5)c(F)cc43)cccc2n(C)c1=O (centres unmarked) [Example B129, N-(3-(3-(2,6-dioxopiperidin-3-yl)benzofuran-5-yl)prop-2-yn-1-yl)-5-(7-fluoro-1′,3′-dimethyl-2′-oxo-1′,2′,3,4-tetrahydro-2H-[1,5′-biquinolin]-6-yl)picolinamide]
13 | > 80 | < 1 | CCC(=O)N1CCC(c2cc(N3CCCc4nc(-c5ccc(C(=O)NCC#Cc6ccc7occ(C8CCC(=O)NC8=O)c7c6)nc5)ncc43)c3cc(C)c(=O)n(C)c3c2)CC1 (centres unmarked) [Example B52, 5-(5-(1,3-dimethyl-2-oxo-7-(1-propionyl-piperidin-4-yl)-1,2-dihydroquinolin-5-yl)-5,6,7,8-tetrahydropyrido[3,2-d]pyrimidin-2-yl)-N-(3-(3-(2,6-dioxopiperidin-3-yl)benzofuran-5-yl)prop-2-yn-1-yl)picolinamide]
14 | > 80 | 1 to 9.9 | Cc1cc2c(N3CCOc4cc(-c5ccc(C(=O)NCC#Cc6ccc7occ(C8CCC(=O)NC8=O)c7c6)nc5)ccc43)cc(C3CCOCC3)cc2n(C)c1=O (centres unmarked) [Example B41, 5-(4-(1,3-dimethyl-2-oxo-7-(tetrahydro-2H-pyran-4-yl)-1,2-dihydroquinolin-5-yl)-3,4-dihydro-2H-benzo[b][1,4]oxazin-7-yl)-N-(3-(3-(2,6-dioxopiperidin-3-yl)benzofuran-5-yl)prop-2-yn-1-yl)picolinamide]
15 | 60 to 79 | 1 to 9.9 | Cc1cc2c(N3CCCc4nc(-c5ccc(C(=O)NCC#Cc6ccc7occ(C8CCC(=O)NC8=O)c7c6)nc5)ncc43)cc(C3CCN(C(=O)C4CCOCC4)CC3)cc2n(C)c1=O (centres unmarked) [Example B150, 5-(5-(1,3-dimethyl-2-oxo-7-(1-(tetrahydro-2H-pyran-4-carbonyl)piperidin-4-yl)-1,2-dihydro-quinolin-5-yl)-5,6,7,8-tetrahydropyrido[3,2-d]pyrimidin-2-yl)-N-(3-(3-(2,6-dioxopiperidin-3-yl)benzofuran-5-yl)prop-2-yn-1-yl) picolinamide]
16 | > 80 | 1 to 9.9 | Cc1cc2c(N3CCCc4nc(-c5cnc(C(=O)NCC#Cc6cc7c(C8CCC(=O)NC8=O)cccc7o6)c(Cl)c5)ncc43)cccc2n(C)c1=O (centres unmarked) [Example B36, 3-chloro-5-(5-(1,3-dimethyl-2-oxo-1,2-dihydroquinolin-5-yl)-5,6,7,8-tetrahydropyrido [3,2-d]pyrimidin-2-yl)-N-(3-(4-(2,6-dioxo-piperidin-3-yl)benzofuran-2-yl)prop-2-yn-1-yl)picolinamide]
17 | > 80 | 1 to 9.9 | CCc1cc(-c2cccc3cc(-c4ccc(C(=O)NCC#Cc5ccc6cnn(C7CCC(=O)NC7=O)c6c5)nc4)ncc23)c2c(n1)N(C)C(=O)N(C)C2 (centres unmarked) [Example B13, N-(3-(1-(2,6-Dioxopiperidin-3-yl)-1H-indazol-6-yl)prop-2-yn-1-yl)-5-(8-(7-ethyl-1,3-dimethyl-2-oxo-1,2,3,4-tetrahydropyrido[2,3-d]pyrimidin-5-yl)isoquinolin-3-yl)picolinamide]
18 | 40 to 59 | 1 to 9.9 | CCc1cc2c(cc(C)c(=O)n2C)c(N2CCCc3nc(-c4ccc(C(=O)NCC#Cc5ccc6occ(C7CCC(=O)NC7=O)c6c5)nc4)ncc32)n1 (centres unmarked) [Example B121, N-(3-(3-(2,6-dioxopiperidin-3-yl)benzofuran-5-yl)prop-2-yn-1-yl)-5-(5-(7-ethyl-1,3-dimethyl-2-oxo-1,2-dihydro-1,6-naphthyridin-5-yl)-5,6,7,8-tetrahydropyrido[3,2-d]pyrimidin-2-yl)picolinamide]
19 | > 80 | < 1 | Cc1cc2c(N3CCCc4cc(-c5ccc(C(=O)NCC#Cc6cc7c(C8CCC(=O)NC8=O)cccc7o6)nc5)nnc43)cccc2n(C)c1=O (centres unmarked) [Example B34, 5-(8-(1,3-dimethyl-2-oxo-1,2-dihydroquinolin-5-yl)-5,6,7,8-tetrahydropyrido[2,3-c]pyridazin-3-yl)-N-(3-(4-(2,6-dioxopiperidin-3-yl)benzofuran-2-yl)prop-2-yn-1-yl)picolinamide]
